In ChEMBL document CHEMBL1154471, “Lanostane-type triterpenoids from the sclerotia of Inonotus obliquus possessing anti-tumor promoting activity” (Eur J Med Chem, 2008):

Key:
Raji [1] = experiment: Inhibition of TPA-induced EBV-early antigen activation in human Raji cells assessed as EA activation at 500 molar ratio after 48 hrs relative to TPA; type: cell-based; set-up: scale not given: the % may be the effect or the level left; settings: human gammaherpesvirus 4
Raji [2] = experiment: Inhibition of TPA-induced EBV-early antigen activation in human Raji cells assessed as EA activation at 100 molar ratio […] relative to TPA; type: cell-based; set-up: scale not given: the % may be the effect or the level left; settings: human gammaherpesvirus 4
[3] = Inhibition of TPA-induced EBV-early antigen activation in human Raji cells assessed as EA activation; type: cell-based, human gammaherpesvirus 4
Raji [4] = experiment: Inhibition of TPA-induced EBV-early antigen activation in human Raji cells assessed as EA activation at 10 molar ratio […] relative to TPA; type: cell-based; set-up: scale not given: the % may be the effect or the level left; settings: human gammaherpesvirus 4
Raji [5] = experiment: Inhibition of TPA-induced EBV-early antigen activation in human Raji cells assessed as EA activation at 1000 molar ratio after 48 hrs relative to TPA; type: cell-based; set-up: scale not given: the % may be the effect or the level left; settings: human gammaherpesvirus 4
[6] = Cytotoxicity against human Raji cells assessed as cell viability at 1000 molar ratio by trypan blue staining relative to control; type: cell-based; settings: read-out: Activity
Mus musculus [7] = experiment: Inhibition of DMBA-induced/TPA-promoted carcinogenesis in mouse assessed as number of skin papillomas per mouse at 85 nmol administered twice weekly after 1 week of initiation for 20 weeks; type: functional
Mus musculus [8] = experiment: Inhibition of DMBA-induced/TPA-promoted carcinogenesis in mouse assessed as number of mouse bearing papillomas at 85 nmol administered twice weekly after 1 week of initiation for 20 weeks; type: functional; set-up: scale not given: the % may be the effect or the level left
Mus musculus [9] = experiment: Inhibition of DMBA-induced/TPA-promoted carcinogenesis in mouse assessed as number of mouse bearing papillomas at 85 nmol administered twice weekly after 1 week of initiation for 11 weeks; type: functional; set-up: scale not given: the % may be the effect or the level left
Mus musculus [10] = experiment: Inhibition of DMBA-induced/TPA-promoted carcinogenesis in mouse assessed as number of skin papillomas per mouse at 85 nmol administered twice weekly after 1 week of initiation for 11 weeks; type: functional

Question: For `C[C@H]([C@H](O)/C=C/C(C)(C)O)[C@H]1CC[C@@]2(C)C3=C(CC[C@]12C)[C@@]1(C)CC[C@H](O)C(C)(C)[C@@H]1CC3`, which Activity (Raji [1]) is on record?
Answer: 26.9%

Question: And the Activity (Raji [2])?
Answer: 69.8%

Question: What about the IC50 [3] of the same compound?
Answer: 231 molar ratio

Question: And the Activity (Raji [4])?
Answer: 89.2%

Question: And the Activity (Raji [5])?
Answer: 0%

Question: And the viability at 1000 molar ratio [6]?
Answer: 70%

Question: Which Activity (Raji [1]) does the source give for `CC1(C)CC[C@]2(C(=O)O)CC[C@]3(C)C(=CC[C@@H]4[C@@]5(C)CC[C@H](O)C(C)(C)[C@@H]5CC[C@]43C)[C@@H]2C1` [OLEANOLIC_ACID] here?
Answer: 30%

Question: What about the Activity (Raji [2]) of the same compound?
Answer: 80%

Question: What about the IC50 [3] of the same compound?
Answer: 389 molar ratio

Question: And the Activity (Raji [4])?
Answer: 100%

Question: And the Activity (Raji [5])?
Answer: 12.7%

Question: Which results are given for `CC(C)=CCC[C@@H](CO)[C@H]1CC[C@@]2(C)C3=C(CC[C@]12C)[C@@]1(C)CC[C@H](O)C(C)(C)[C@@H]1CC3`?
Answer: Activity (Raji [1]): 47.1%; Activity (Raji [2]): 77.5%; IC50 [3]: 392 molar ratio; Activity (Raji [4]): 100%; Activity (Raji [5]): 10.9%; viability at 1000 molar ratio [6]: 70%

Question: What does the source list for `CC(C)=CCC[C@@H](C=O)[C@H]1CC[C@@]2(C)C3=C(CC[C@]12C)[C@@]1(C)CC[C@H](O)C(C)(C)[C@@H]1CC3`?
Answer: Activity (Mus musculus [7]): 3.8; Activity (Raji [1]): 35.1%; Activity (Raji [2]): 64%; IC50 [3]: 232 molar ratio; Activity (Mus musculus [8]): 73.3%; Activity (Raji [4]): 90.4%; Activity (Raji [5]): 0%; viability at 1000 molar ratio [6]: 70%; Activity (Mus musculus [9]): 33.3%; Activity (Mus musculus [10]): 1.2

Question: For `C[C@H]([C@H](O)/C=C/C(C)(C)O)[C@H]1CC[C@@]2(C)C3=CC[C@H]4C(C)(C)[C@@H](O)CC[C@]4(C)C3=CC[C@]12C`, which Activity (Raji [1]) is on record?
Answer: 25.1%

Question: And the Activity (Raji [2])?
Answer: 67.3%

Question: What about the IC50 [3] of the same compound?
Answer: 228 molar ratio

Question: And the Activity (Raji [4])?
Answer: 88.2%

Question: And the Activity (Raji [5])?
Answer: 0%

Question: What about the viability at 1000 molar ratio [6] of the same compound?
Answer: 70%
